Measurements: patent US7888357B2, “Anti-inflammatory and protein kinase inhibitor compositions and related methods for downregulation of detrimental cellular responses and inhibition of cell death” (Northwestern University, priority 2001, dated 2011)
Entries after “also recorded” stand apart in the source; their conditions may differ. Like-named read-outs stand apart in the source and are kept apart here.

Legend:
[1] = target: T1, myosin light chain kinase (MLCK) (Gallus gallus, UniProt P11799); assay: Reconstituted enzyme assay, MLCK; assay type: biochemical, chicken
T1 construct: chicken gizzard MLCK prepared as described; from tissue; host or cells: chicken gizzard
T1 sequence (P11799 935-1906): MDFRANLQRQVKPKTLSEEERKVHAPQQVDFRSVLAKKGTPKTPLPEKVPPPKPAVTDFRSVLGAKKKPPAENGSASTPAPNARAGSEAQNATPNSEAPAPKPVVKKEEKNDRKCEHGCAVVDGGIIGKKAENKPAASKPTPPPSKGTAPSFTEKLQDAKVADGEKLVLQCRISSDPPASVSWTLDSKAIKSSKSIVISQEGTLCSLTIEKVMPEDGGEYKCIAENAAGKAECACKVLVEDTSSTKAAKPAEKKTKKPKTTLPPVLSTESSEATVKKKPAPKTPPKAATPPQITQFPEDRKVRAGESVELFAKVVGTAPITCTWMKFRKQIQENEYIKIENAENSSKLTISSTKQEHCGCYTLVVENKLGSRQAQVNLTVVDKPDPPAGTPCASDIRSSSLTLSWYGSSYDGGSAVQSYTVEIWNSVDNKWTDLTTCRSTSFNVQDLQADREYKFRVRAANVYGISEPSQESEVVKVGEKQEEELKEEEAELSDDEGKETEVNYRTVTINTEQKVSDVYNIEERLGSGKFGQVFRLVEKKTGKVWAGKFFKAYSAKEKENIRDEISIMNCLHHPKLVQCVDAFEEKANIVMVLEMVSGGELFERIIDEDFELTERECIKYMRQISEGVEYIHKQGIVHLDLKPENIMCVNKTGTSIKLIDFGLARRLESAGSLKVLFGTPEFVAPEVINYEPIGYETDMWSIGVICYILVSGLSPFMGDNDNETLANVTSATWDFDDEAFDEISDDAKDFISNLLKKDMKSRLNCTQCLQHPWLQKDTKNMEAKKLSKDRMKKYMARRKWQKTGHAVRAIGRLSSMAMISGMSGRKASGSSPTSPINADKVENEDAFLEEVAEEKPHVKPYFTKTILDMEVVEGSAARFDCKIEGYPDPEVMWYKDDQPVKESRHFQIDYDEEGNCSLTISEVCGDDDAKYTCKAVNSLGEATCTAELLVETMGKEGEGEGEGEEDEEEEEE
Method: (§1) [table] […] The rationale for using BV-2 cells in high throughput screening was the paucity of well-characterized human microglial cell lines, and the relevant activation responses and signaling pathways reflect those seen in human and rodent primary microglial cultures. Compounds were tested for their effects on NO accumulation in conditioned media of LPS-stimulated BV-2 cells by measurement of nitrite production by the Griess assay as a read-out for iNOS activity, as described previously. Stock solutions of compounds were prepared in dimethylsulfoxide (DMSO) or in water. When stock solutions were prepared in DMSO, control wells contained the same final concentration of DMSO as the compound-containing wells. […] Solutions of compounds for cell treatments were diluted to a 10× final concentration by dilution of stock solutions in αMEM media. […] Reconstituted enzyme assays were done as described s. The sources of protein kinases were: bovine heart PKA from Promega, rat brain PKC from Calbiochem, rat CaMKII from New England Biolabs, chicken gizzard MLCK prepared as described, and a p38 MAP kinase kit containing recombinant Xenopus p38-MAPK and its human substrate from Upstate Biotechnology. The catalytic domains of these protein kinases retain a high level of amino acid sequence identity across mammalian species, consistent with the lack of documented major differences across species for the in vitro catalytic activity of a given kinase.

protein kinase C (PKC) = assay: Reconstituted enzyme assay, PKC; assay type: biochemical, rat
Method: as §1

WT mice = assay: Endotoxin (LPS)-mediated acute lung injury; assay type: in vivo, mouse; settings: 2.5 mg/kg IP 1 hour prior to LPS 10 mg/kg IP; 24 hours
Method: To confirm the specific role of EC MLCK in the reduced susceptibility of KO mice to endotoxin-mediated lung injury, a representative composition of this invention was used to determine whether pharmacologic inhibition of MLCK would also reduce LPS-induced lung injury. (See, examples 25-26, below.) WT mice were treated with 2.5 mg/kg of a representative MLCK inhibitor (e.g., cpd MW01-022AZ) 1 hour prior to administration of LPS.
Endotoxin-mediated lung injury. LPS (Sigma, St. Louis, Mo.) (10 mg/kg) was administered via intraperitoneal (ip) injection. Animals were allowed to recover for 24 hours prior to determination of lung injury. Control animals received an equivalent volume of sterile saline.
[drawing 161] are shown to be comparatively selective (using assay procedures and data analyses previously described) for inhibition of MLCK and related enzymes such as Rho kinase, and are bioavailable in various other animal models of disease. […] The stimulus in this example was IP injection of 10 mg/kg body weight of the bacterial endotoxin, lipopolysaccharide (LPS). The treatment with MW01-022AZ represents a clinically relevant dose of a kinase inhibitor therapeutic based on prior art with other kinases. Other compositions of this invention, having the structural relationships described and/or illustrated above, can also be employed.
Histologic analysis of lung injury after LPS exposure. […]

CaMKII = target: T2, CaMKII (Rattus norvegicus, UniProt P11275); assay: Reconstituted enzyme assay, CaMKII; assay type: biochemical; settings: Table 6; read-out: Inhibition CAMKII
T2 construct: purchased New England Biolabs
T2 sequence (P11275 1-325 limits assumed): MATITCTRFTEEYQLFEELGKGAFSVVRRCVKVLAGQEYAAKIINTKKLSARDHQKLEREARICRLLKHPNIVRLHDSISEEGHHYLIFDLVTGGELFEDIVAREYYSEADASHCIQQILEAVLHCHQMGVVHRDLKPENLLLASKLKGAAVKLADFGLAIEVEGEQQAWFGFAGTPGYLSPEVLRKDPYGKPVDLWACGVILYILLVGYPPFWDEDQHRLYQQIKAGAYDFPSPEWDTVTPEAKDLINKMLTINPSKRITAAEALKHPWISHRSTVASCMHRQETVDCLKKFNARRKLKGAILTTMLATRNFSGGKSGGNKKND
Method: as §1

[2] = target: death associated protein kinase (DAPK) (Homo sapiens, UniProt P53355); assay: Enzyme assay, DAPK; assay type: biochemical; settings: for IC50: Table 6, read-out: Inhibition DAPK
death associated protein kinase (DAPK), sequence (P53355 whole entry, species assumed): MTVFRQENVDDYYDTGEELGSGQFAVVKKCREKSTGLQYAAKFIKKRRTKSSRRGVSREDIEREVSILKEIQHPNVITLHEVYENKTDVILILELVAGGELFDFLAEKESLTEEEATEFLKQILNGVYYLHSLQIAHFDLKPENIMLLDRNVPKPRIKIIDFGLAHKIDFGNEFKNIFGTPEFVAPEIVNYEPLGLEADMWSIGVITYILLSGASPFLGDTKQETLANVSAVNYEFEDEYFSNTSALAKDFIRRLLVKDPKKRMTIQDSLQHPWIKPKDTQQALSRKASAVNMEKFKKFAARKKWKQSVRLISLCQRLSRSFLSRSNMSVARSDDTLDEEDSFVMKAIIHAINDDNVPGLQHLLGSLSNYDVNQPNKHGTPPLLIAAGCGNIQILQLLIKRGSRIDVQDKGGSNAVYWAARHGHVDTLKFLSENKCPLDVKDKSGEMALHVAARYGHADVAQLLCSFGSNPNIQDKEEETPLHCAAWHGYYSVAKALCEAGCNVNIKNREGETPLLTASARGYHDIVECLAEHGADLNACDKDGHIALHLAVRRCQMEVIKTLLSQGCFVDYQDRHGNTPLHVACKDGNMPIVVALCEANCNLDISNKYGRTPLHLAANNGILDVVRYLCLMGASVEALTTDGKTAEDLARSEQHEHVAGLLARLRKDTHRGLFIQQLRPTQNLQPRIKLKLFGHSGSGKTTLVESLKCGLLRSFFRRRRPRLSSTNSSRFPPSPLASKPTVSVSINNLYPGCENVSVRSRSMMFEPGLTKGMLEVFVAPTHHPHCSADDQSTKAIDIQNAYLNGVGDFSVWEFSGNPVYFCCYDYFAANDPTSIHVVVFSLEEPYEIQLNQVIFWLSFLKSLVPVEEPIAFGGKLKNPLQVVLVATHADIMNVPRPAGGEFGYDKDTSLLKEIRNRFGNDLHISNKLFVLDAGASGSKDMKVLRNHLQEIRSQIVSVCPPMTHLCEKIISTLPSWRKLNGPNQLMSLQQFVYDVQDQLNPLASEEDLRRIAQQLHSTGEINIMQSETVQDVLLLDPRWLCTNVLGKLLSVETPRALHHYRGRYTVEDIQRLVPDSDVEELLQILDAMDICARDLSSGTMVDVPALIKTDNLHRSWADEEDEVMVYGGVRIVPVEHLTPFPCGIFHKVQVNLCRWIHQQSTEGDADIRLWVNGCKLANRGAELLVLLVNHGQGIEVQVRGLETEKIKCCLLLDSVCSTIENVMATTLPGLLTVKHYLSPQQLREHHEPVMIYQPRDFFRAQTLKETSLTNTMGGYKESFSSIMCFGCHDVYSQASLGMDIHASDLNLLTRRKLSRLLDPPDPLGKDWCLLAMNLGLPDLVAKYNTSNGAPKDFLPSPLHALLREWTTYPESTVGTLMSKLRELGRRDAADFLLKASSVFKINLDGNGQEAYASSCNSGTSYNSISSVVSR
Method: Therefore, compound MW01-026Z was selected as a starting point for variations on component A (Table 6). […] However, none of the A variations appeared to improve the activity and selectivity profile of CompoundMW01-026Z. (For purposes of illustration, only, component G was maintained throughout as an acyl moiety, while component R2 was varied as shown. All such compositions are available using the synthetic techniques described herein. Enzyme assays were conducted per procedures described elsewhere herein.) A more comprehensive structure activity relationship is summarized in Table 7, below.
With reference to the compositions of Table 3 and the enzyme assay techniques described elsewhere herein, Table 7 provides structural activity relationships observed, in accordance with this invention.

Wistar rats at P7 = assay: Hypoxia-ischemia induced brain damage, hemispheric weight; assay type: in vivo
Text: Induction of hypoxia-ischemia in postnatal day seven (P7) rats. Hypoxic-ischemic injury in P7 rats was induced using the well-characterized method of unilateral carotid ligation followed by hypoxia. This age is approximately equivalent to the 34 week gestation human infant. Male and female Wistar rats at P7 were removed from the mother and anesthetized with halothane (3.5% for induction and 1.5% for maintenance) 50% oxygen-balance nitrogen delivered via facemask. The right common carotid artery was identified and gently separated from the vagus nerve. The vessel was ligated with double 6-0 silk sutures to ensure cessation of blood flow. […]
Animals were sacrificed by halothane overdose at 7 days after hypoxia. […] Differences in weight between the hypoxic-ischemic and control contralateral hemisphere were calculated for each animal using the formula: 100*(C−I)/C=% damage where I represents the weight of the ipsilateral and C the weight of the contralateral hemisphere.
Data Analysis. All data are expressed as mean±SEM. The degree of hypoxic-ischemic brain injury after treatment with drug or saline is expressed as the percentage of reduction in the tissue weight of the hemisphere ipsilateral to carotid ligation. This was calculated as a ratio of the right (ipsilateral, ischemic) to the left (contralateral, non-ischemic) hemispheric weights as described previously in the literature. […]

[3] = Table 6, read-out: Inhibition MLCK
[4] = Table 6, read-out: Inhibition KC

Row | IC50 [1, 3] | IC50 (protein kinase C (PKC); [4]) | SMILES | IC50 (CaMKII) | IC50 [2] | other results
1 |  |  | COc1ccc(S(=O)(=O)N(CCO)c2ccccc2CN(C)C/C=C/c2ccc(Cl)cc2)cc1 [Compound 5, KN93, reference compound] |  |  | IC50 ([1]; γ-[32P]-ATP, synthetic peptide substrate, mean ± SEM, read-out: IC50 MLCK): 9.8 ± 0.7 µM; IC50 (protein kinase C (PKC); γ-[32P]-ATP, synthetic peptide substrate, read-out: IC50 PKC): > 100 µM
2 |  |  | N=c1ccc(Cl)nn1CCCCCCCCCCC(=O)Nc1ccc(-c2ccccc2)nn1 [MW01-022AZ] |  |  | LPS-induced lung injury (histology) (WT mice): no evidence of lung injury; also recorded: close to normal
3 | < 20 µM | 50 to 100 µM | N=c1cc2c(nn1CCCCCCCCCCC(=O)Nc1cc3c(nn1)-c1ccccc1CC3)-c1ccccc1CC2 [MW01-055V] |  | 50 to 100 µM | 
4 | > 100 µM | 20 to 50 µM | N=c1ccc(-c2ccccc2)nn1CCCCCCCCCCC(=O)Nc1ccc(-c2ccccc2)nn1 [MW01-125AZ] | > 100 µM | 20 to 50 µM | 

Row | SMILES | IC50 [1, 3] | IC50 (protein kinase C (PKC); [4]) | IC50 (CaMKII) | IC50 [2] | other results
5 | N=c1cc2c(nn1CCCCCCCCCCC(=O)Nc1ccc(-c3ccccc3)nn1)-c1ccccc1CC2 [MW01-026Z] | 20 to 50 µM | > 100 µM | > 100 µM | < 20 µM | DAPK inhibitory activity ([2]; comparison among compounds): most potent DAPK inhibitor; percent weight loss in the ischemic hemisphere compared to the contralateral hemisphere (Wistar rats at P7; 5 mg/kg IP 1 hour after carotid ligation, 7 day recovery to P14, mean±SEM, n=7): 8.2±5.5%; mortality (Wistar rats at P7; 5 mg/kg IP, versus vehicle group): no differences in mortality
